The target of one experiment is T1, PfHT (Plasmodium falciparum, UniProt Q7KWJ5).
T1 sequence (Q7KWJ5 1-504): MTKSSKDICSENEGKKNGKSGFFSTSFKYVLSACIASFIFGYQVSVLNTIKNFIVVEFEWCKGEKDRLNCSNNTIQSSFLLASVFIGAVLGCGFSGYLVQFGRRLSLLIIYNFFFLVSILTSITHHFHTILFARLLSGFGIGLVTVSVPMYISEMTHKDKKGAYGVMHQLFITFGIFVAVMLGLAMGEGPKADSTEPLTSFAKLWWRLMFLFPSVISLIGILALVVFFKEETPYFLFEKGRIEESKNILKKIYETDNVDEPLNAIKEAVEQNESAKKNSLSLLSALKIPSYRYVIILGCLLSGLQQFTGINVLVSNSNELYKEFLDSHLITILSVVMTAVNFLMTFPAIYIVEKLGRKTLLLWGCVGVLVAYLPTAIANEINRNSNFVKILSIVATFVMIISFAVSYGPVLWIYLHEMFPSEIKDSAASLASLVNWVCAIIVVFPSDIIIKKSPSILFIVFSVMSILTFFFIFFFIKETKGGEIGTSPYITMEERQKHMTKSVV
Put plainly: [3H]-D-fructose uptake by HEK293 cells overexpressing PfHT. In kind it is cell-based. The arrangement: expressed in transfected cells; host or cells: HEK293 (HEK293-FLIP, native hGLUT1 knocked down by shRNA). The source says:
(§1) Generation of HEK293 cells overexpressing PfHT and human GLUTs 1–4 were described elsewhere. Briefly, HEK293 cells were transfected with pcDNA3.1 FLII12Pglu-7006 (Addgene), containing the fluorescence resonance energy transfer (FRET) glucose sensor (HEK293-FLIP) and PfHT, human GLUT1 (hGLUT1), hGLUT2, hGLUT3, hGLUT4, hGLUT5 or hGLUT8 using Optifect (Life Technologies) according to manufacturer’s specifications. To increase retention of GLUT8 at the plasma membrane, the dileucine sorting signal E^7E^8XXXLL was modified to R^7R^8XXXLL as described in [17]. Stable transfectants were selected for G418 and hygromycin resistance to select for FRET sensor and hexose transporter, respectively. HEK293-FLIP cells were also used to generate cells stably transfected with FLAG-tagged PfHT (FTPfHT). FLAG tag ([…]) followed by a triple glycine linker and a tobacco etch virus (TEV) protease site (ENLYFQS) followed by a triple glycine linker was added to the N-terminus of PfHT via PCR [18] using Phusion Hot Start II High-Fidelity DNA Polymerase (Fisher Scientific). Single clones were selected by comparing their abilities to transport glucose as assayed via FRET and radiolabeled hexose uptake. In all cell lines, except for HEK293 cells overexpressing hGLUT1 and hGLUT5, native hGLUT1 was knocked down using shRNA as described elsewhere. Transcript levels of the individual GLUTs expressed in each cell line are as described in [13, 15] and in S1 Fig.
(§2) Glucose uptake by P. falciparum was performed essentially as described. P. falciparum strain 3D7 was cultured in 100 mm tissue culture dishes (Techno Plastic Products) in a 2% suspension of human erythrocytes and RPMI 1640 medium until reaching > 7.5% parasitemia. Cells were pelleted via centrifugation and resuspended in RPMI 1640 medium. To determine the uptake of radiolabeled glucose into the parasite, parasites were isolated from infected erythrocytes by permeablization with saponin (0.05 w/v), followed by centrifugation, aspiration of supernatant and washing of the pellet 3X with saline solution (135 mM NaCl, 2 mM KCl, 25 mM HEPES, 0.2 mM glucose and 1 mM MgCl2; pH 7.1) to remove cellular debris. WU-1 or DMSO vehicle were added to 100 μl parasites (resuspended in saline) 5 min prior to the addition of 100 μl [^14C]2-DOG (0.2- μCi/ml final concentration). 2-DG uptake was stopped after 2 min by layering the entire reaction over 300 μl of an oil mixture (5:4 mix of dibutyl phthalate / dinonyl phthalate) in Eppendorf tubes and centrifuged at 15,850 × g for 2 mins. The ratio of the estimated intracellular concentration of radiolabel relative to the extracellular concentration were calculated as described. Uptake of radiolabeled hexose into HEK293 cells was measured in glucose-free HBSS as described previously. Briefly, cells were plated at 400,000 cells/well overnight at 37°C in 24-well plates pre-treated with PEI. After 30-min incubation at 37°C in glucose-free HBSS in the presence of vehicle or increasing concentrations of compound, 2-DG uptake was measured in glucose-free HBSS for 4 min at 37°C. Cultures were washed in ice-cold 1X PBS and lysed in 0.1% Triton X-100 in 1X PBS. Radiolabeled hexose uptake was determined by liquid scintillation counting (Ultima Gold, Thermo Fisher) and normalized to total protein per well. Uptake data are plotted as percent uptake relative to vehicle-treated cells. Kinetic analyses were performed using the indicated concentrations of substrate and WU-1, with quenching of uptake after 1 min incubation. Incubation times had been previously determined as being in the linear range of time-dependent radiolabeled hexose uptake (2 min for 2-DG uptake into freed parasites; 2 and 4 min for D-Frc and 2-DG uptake HEK cell lines, respectively). Data were fit by least squares nonlinear regression analysis using GraphPad Prism 6.0 software.

A further experiment has as its target T2, FTPfHT (Plasmodium falciparum, UniProt Q7KWJ5).
T2 sequence (Q7KWJ5 1-504): T1 sequence (Q7KWJ5 1-504)
The experiment in a line: 2-DG uptake by HEK293 cells overexpressing FLAG-tagged PfHT (FTPfHT). Format: cell-based. Also on record: the 38–40 kDa band represents full length PfHT; expressed in transfected cells; host or cells: HEK293-FLIP (HEK293). The note with it: for remaining activity at 0.001 µM: concentration 0.001 µM, Expt 1-3.
Description: as §1, §2

Where [1] appears, read: FTPfHT, 2-DG Uptake, average of Expt 1-3, read-out: AVE IC50.
The mark [2] stands for this setting: FTPfHT, 2-DG Uptake, single experiments Expt 1-3, read-out: IC50.
Setting [3] is: HEK293, 4 min, FTPfHT, read-out: 2-DG Uptake AVE.
Where [4] appears, read: IC50 for inhibition of 2-DG uptake, HEK293 cells overexpressing FTPfHT.

In general, IC50 refers to the point on the concentration scale where inhibition reaches its midpoint.

Where “and” joins values, the source holds several entries; their conditions need not be identical. Equal entries are not always repeated. Where two headings read alike, the source gives them in different places.

For `Cc1ccc(S(=O)(=O)CCNC(=O)c2c(-c3c(Cl)cccc3Cl)noc2C)cc1` [WU-1, 3-(2,6-dichlorophenyl)-5-methyl-N-[2-(4-methylbenzenesulfonyl)ethyl]-1,2-oxazole-4-carboxamide], the IC50 is 4.99 µM against PfHT (AVE IC50 (µM), PfHT, D-frc Uptake, average of Expt 1-3); 4.57 µM and 6.26 µM and 4.14 µM on PfHT (IC50 (µM), PfHT, D-frc Uptake, single experiments Expt 1-3); 5 ± 0.7 µM against PfHT (IC50, D-fructose (Frc) uptake, PfHT cell line); 19.5 µM at FTPfHT (setting [1]); 19.2 µM and 18.9 µM and 20.5 µM on FTPfHT (setting [2]); 19.5 ± 0.5 µM against FTPfHT (setting [4]). In addition, the remaining activity at 0.001 µM at PfHT (HEK293, 2 min, read-out: D-frc Uptake AVE, PfHT, concentration 0.001 µM, Expt 1-3) was 101%; on FTPfHT (setting [3]), 100%. In addition, the remaining activity at 0.63 µM at PfHT (HEK293, 2 min, read-out: D-frc Uptake AVE, PfHT, concentration 0.63 µM) stood at 80.7%. In addition, the remaining activity at 1.25 µM at PfHT (HEK293, 2 min, read-out: D-frc Uptake AVE, PfHT, concentration 1.25 µM) amounted to 72.3%; on FTPfHT (HEK293, 4 min, FTPfHT, concentration 1.250 µM, read-out: 2-DG Uptake AVE), 81.9%. In addition, the remaining activity at 2.5 µM at PfHT (HEK293, 2 min, read-out: D-frc Uptake AVE, PfHT, concentration 2.50 µM) came to 68.5%; at FTPfHT (HEK293, 4 min, FTPfHT, concentration 2.500 µM, read-out: 2-DG Uptake AVE), 84.9%. Also, the remaining activity at 5 µM turned out to be 49.6% on PfHT (HEK293, 2 min, read-out: D-frc Uptake AVE, PfHT, concentration 5.00 µM) and 80.6% on FTPfHT (HEK293, 4 min, FTPfHT, concentration 5.0 µM, read-out: 2-DG Uptake AVE). Moreover, the remaining activity at 10 µM on PfHT (HEK293, 2 min, read-out: D-frc Uptake AVE, PfHT, concentration 10.00 µM) is 37.9%; at FTPfHT (HEK293, 4 min, FTPfHT, concentration 10.0 µM, read-out: 2-DG Uptake AVE), 64.8%. In addition, the remaining activity at 20 µM at PfHT (HEK293, 2 min, read-out: D-frc Uptake AVE, PfHT, concentration 20.00 µM) was 22.3%; at FTPfHT (HEK293, 4 min, FTPfHT, concentration 20 µM, read-out: 2-DG Uptake AVE), 52.4%. For the same molecule, the remaining activity at 40 µM at PfHT (HEK293, 2 min, read-out: D-frc Uptake AVE, PfHT, concentration 40.00 µM) came to 15.6%; at FTPfHT (HEK293, 4 min, FTPfHT, concentration 40 µM, read-out: 2-DG Uptake AVE) it was 41.1%. Also, the remaining activity at 80 µM was 10.7% on PfHT (HEK293, 2 min, read-out: D-frc Uptake AVE, PfHT, concentration 80.00 µM) and 29.3% on FTPfHT (HEK293, 4 min, FTPfHT, concentration 80 µM, read-out: 2-DG Uptake AVE). For the same molecule, the remaining activity at 225 µM on PfHT (HEK293, 2 min, read-out: D-frc Uptake AVE, PfHT, concentration 225.00 µM) is 8.85%; at FTPfHT (HEK293, 4 min, FTPfHT, concentration 225 µM, read-out: 2-DG Uptake AVE), 17.1%. Also, the remaining activity at 160 µM on PfHT (HEK293, 2 min, read-out: D-frc Uptake AVE, PfHT, concentration […]) was 7.62%; on FTPfHT (HEK293, 4 min, FTPfHT, concentration 160 µM, read-out: 2-DG Uptake AVE) it was 19.9%. For the same molecule, the “Selectivity Index, Frc, PfHT line itself” value on PfHT (reference value) is reported as 1.0. Besides, the remaining activity at 0.313 µM on FTPfHT (HEK293, 4 min, FTPfHT, concentration 0.313 µM, read-out: 2-DG Uptake AVE) is 95.9%. Besides, the remaining activity at 0.625 µM on FTPfHT (HEK293, 4 min, FTPfHT, concentration 0.625 µM, read-out: 2-DG Uptake AVE) came to 92.1%.

On to `C=C1[C@@H](C)[C@H]2[C@H](Cc3ccccc3)NC(=O)[C@]23OC(=O)/C=C/[C@H](O)CCC[C@@H](C)C/C=C/[C@H]3[C@@H]1O` [CB, cytochalasin B], for which the IC50 on FTPfHT (setting [1]) is 29.9 µM; on FTPfHT (setting [2]), 26.6 µM and 30.5 µM and 32.6 µM; against FTPfHT (setting [4]), 29.9 ± 1.8 µM. For the same molecule, at FTPfHT (setting [3]), the remaining activity at 0.001 µM came to 100%. Moreover, on FTPfHT (HEK293, 4 min, FTPfHT, concentration 0.3906 µM, read-out: 2-DG Uptake AVE), the remaining activity at 0.3906 µM turned out to be 97.8%. Moreover, the remaining activity at 0.7812 µM on FTPfHT (HEK293, 4 min, FTPfHT, concentration 0.7812 µM, read-out: 2-DG Uptake AVE) was found to be 93.2%. Moreover, the remaining activity at 1.56 µM at FTPfHT (HEK293, 4 min, FTPfHT, concentration 1.56 µM, read-out: 2-DG Uptake AVE) came to 95.4%. For the same molecule, on FTPfHT (HEK293, 4 min, FTPfHT, concentration 3.125 µM, read-out: 2-DG Uptake AVE), the remaining activity at 3.125 µM came out at 90%. At FTPfHT (HEK293, 4 min, FTPfHT, concentration 6.25 µM, read-out: 2-DG Uptake AVE), the remaining activity at 6.25 µM was 81.9%. Besides, at FTPfHT (HEK293, 4 min, FTPfHT, concentration 12.5 µM, read-out: 2-DG Uptake AVE), the remaining activity at 12.5 µM worked out at 72.3%. In addition, the remaining activity at 25 µM on FTPfHT (HEK293, 4 min, FTPfHT, concentration 25 µM, read-out: 2-DG Uptake AVE) came to 56%. Also, the remaining activity at 50 µM at FTPfHT (HEK293, 4 min, FTPfHT, concentration 50 µM, read-out: 2-DG Uptake AVE) was 44.6%. Further, the remaining activity at 100 µM at FTPfHT (HEK293, 4 min, FTPfHT, concentration 100 µM, read-out: 2-DG Uptake AVE) is 32.2%. In addition, the remaining activity at 200 µM at FTPfHT (HEK293, 4 min, FTPfHT, concentration 200 µM, read-out: 2-DG Uptake AVE) was 22.7%. Moreover, the remaining activity at 400 µM on FTPfHT (HEK293, 4 min, FTPfHT, concentration 400 µM, read-out: 2-DG Uptake AVE) was 12.9%.

The values above are taken from paper PMC6508677, “Identification of druggable small molecule antagonists of the Plasmodium falciparum hexose transporter PfHT and assessment of ligand access to the glucose permeation pathway via FLAG-mediated protein engineering” (PLoS ONE, 2019).
